pIC50: −log10 of the molar value.

Sequence of human TRPA1 (O75762 whole entry): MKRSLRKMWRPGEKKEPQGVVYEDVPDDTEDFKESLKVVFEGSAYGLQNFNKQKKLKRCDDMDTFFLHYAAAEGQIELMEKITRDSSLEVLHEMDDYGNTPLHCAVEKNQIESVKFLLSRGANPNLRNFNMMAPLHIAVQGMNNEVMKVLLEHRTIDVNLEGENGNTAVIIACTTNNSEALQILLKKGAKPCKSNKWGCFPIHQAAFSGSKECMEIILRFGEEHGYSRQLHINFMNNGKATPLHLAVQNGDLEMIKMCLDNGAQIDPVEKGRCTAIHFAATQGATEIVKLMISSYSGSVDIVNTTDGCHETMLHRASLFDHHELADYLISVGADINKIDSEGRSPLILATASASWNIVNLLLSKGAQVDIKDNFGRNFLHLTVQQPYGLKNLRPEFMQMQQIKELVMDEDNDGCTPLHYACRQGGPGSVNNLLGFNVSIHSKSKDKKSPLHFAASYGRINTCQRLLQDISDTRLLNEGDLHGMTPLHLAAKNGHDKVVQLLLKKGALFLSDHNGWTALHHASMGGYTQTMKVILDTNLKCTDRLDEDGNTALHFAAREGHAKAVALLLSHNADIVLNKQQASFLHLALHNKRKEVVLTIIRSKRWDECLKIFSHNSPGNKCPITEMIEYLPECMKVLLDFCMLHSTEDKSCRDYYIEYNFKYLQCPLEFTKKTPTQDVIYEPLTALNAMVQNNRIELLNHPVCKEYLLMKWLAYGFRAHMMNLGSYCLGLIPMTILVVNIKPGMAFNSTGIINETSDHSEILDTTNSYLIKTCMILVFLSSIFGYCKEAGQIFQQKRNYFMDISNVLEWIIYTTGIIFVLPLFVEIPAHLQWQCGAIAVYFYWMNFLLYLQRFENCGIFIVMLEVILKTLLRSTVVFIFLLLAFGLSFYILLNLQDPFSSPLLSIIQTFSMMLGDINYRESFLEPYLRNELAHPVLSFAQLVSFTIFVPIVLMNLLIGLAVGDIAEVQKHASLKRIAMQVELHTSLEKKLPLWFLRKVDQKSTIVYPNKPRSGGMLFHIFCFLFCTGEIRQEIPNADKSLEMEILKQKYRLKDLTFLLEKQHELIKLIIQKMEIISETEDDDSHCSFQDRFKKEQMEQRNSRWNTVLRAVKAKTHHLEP

This assay addresses human TRPA1 (Homo sapiens (Human), UniProt O75762). In words: FLIPR Tetra calcium influx assay, block of cinnamaldehyde-induced calcium influx in CHO cells expressing TRPA1 (human). It is filed as cell-based. As to conditions: 20 min compound incubation, 75 uM cinnamaldehyde (~EC80), Hill coefficient fixed to 1.5, read-out: hTRPA1 AUC IC50. A digest of the protocol:
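CHO cells loaded with calcium dye, preincubated with compounds 20 min at room temperature in HBSS/20 mM HEPES pH 7.4 with 0.02% BSA. Channels activated by ~EC80 cinnamaldehyde (75 uM human, 45 uM rat); block of calcium influx read on FLIPR Tetra, IC50 fitted with fixed Hill coefficient.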
`O=C(NCc1cc(Cl)nc(-c2ccc(OC(F)F)cc2)c1)[C@@H]1C[C@@H](F)CN1S(=O)(=O)c1ccc(F)cc1` [Example 165, (2S,4R)—N-((2-chloro-6-(4-(difluoromethoxy)phenyl)pyridin-4-yl)methyl)-4-fluoro-1-((4-fluorophenyl)sulfonyl)pyrrolidine-2-carboxamide]: the negative-log IC50 (pIC50) is 7.18.

In the case of `N#Cc1cnc(-c2ccc(C(F)(F)F)nc2)cc1CNC(=O)[C@@H]1[C@@H](F)CCN1S(=O)(=O)c1ccc(F)cc1` [Example 166, (2R,3S)—N-([5-cyano-2-[6-(trifluoromethyl)pyridin-3-yl]pyridin-4-yl]methyl)-3-fluoro-1-[(4-fluorobenzene)sulfonyl]pyrrolidine-2-carboxamide], the negative-log IC50 (pIC50) is 7.89.

Turning to `O=C(NCc1cc(-c2cnc(C(F)(F)F)nc2)c(F)cn1)[C@@H]1C[C@@H](F)CN1S(=O)(=O)c1ccc(F)cc1` [Example 167, (2S,4R)-4-fluoro-N-((5-fluoro-4-(2-(trifluoromethyl)pyrimidin-5-yl)pyridin-2-yl)methyl)-1-(4-fluorophenylsulfonyl)pyrrolidine-2-carboxamide], the negative-log IC50 (pIC50) is 7.42.

As to `Cc1cnc(-c2cnc(C(F)(F)F)nc2)cc1CNC(=O)[C@@H]1C[C@@H](F)CN1S(=O)(=O)c1ccc(F)cc1` [Example 169, (2S,4R)-4-fluoro-1-[(4-fluorobenzene)sulfonyl]-N-([5-methyl-2-[2-(trifluoromethyl)pyrimidin-5-yl]pyridin-4-yl]methyl)pyrrolidine-2-carboxamide], the pIC50 is 6.94.

As to `COCCOc1cc(-c2ccc(C(F)(F)F)nc2)cc(CNC(=O)[C@@H]2C[C@@H](F)CN2S(=O)(=O)c2ccc(F)cc2)n1` [Example 170, (2S,4R)-4-fluoro-1-(4-fluorophenylsulfonyl)-N-((6′-(2-methoxyethoxy)-6-(trifluoromethyl)-3,4′-bipyridin-2′-yl)methyl)pyrrolidine-2-carboxamide], the negative logarithm of the IC50 (pIC50) was 7.05.

Take `O=C(NCc1cc(-c2cnc(C(F)(F)F)nc2)cnc1F)[C@@H]1C[C@@H](F)CN1S(=O)(=O)c1ccc(F)cc1` [Example 171, (2S,4R)-4-fluoro-1-(4-fluorophenyl)sulfonyl-N-[[2-fluoro-5-[2-(trifluoromethyl)pyrimidin-5-yl]-3-pyridyl]methyl]pyrrolidine-2-carboxamide]: the negative logarithm of the IC50 (pIC50) was 6.68.

In the case of `O=C(NCc1ccnc(-c2cnc(C(F)(F)F)nc2)c1)[C@@H]1[C@H]2C[C@H]2CN1S(=O)(=O)c1ccc(F)cc1` [Example 172, (1R,4S,5S)-3-(4-fluorophenyl)sulfonyl-N-[[2-[2-(trifluoromethyl)pyrimidin-5-yl]-4-pyridyl]methyl]-3-azabicyclo[3.1.0]hexane-4-carboxamide], the negative-log IC50 (pIC50) is 7.42.

As for `O=C(NCc1cc(F)cc(-c2csc(C(F)(F)F)n2)c1)[C@@H]1C[C@@H](F)CN1S(=O)(=O)c1ccc(F)cc1` [Example 173, (2S,4R)-4-fluoro-1-(4-fluorophenyl)sulfonyl-N-[[3-fluoro-5-[2-(trifluoromethyl)thiazol-4-yl]phenyl]methyl]pyrrolidine-2-carboxamide], the pIC50 is 6.95.

Take `O=C(NCc1cc(F)cc(-c2nc(C(F)(F)F)cs2)c1)[C@@H]1C[C@@H](F)CN1S(=O)(=O)c1ccc(F)cc1` [Example 175, (2S,4R)-4-fluoro-1-(4-fluorophenyl)sulfonyl-N-[[3-fluoro-5-[4-(trifluoromethyl)thiazol-2-yl]phenyl]methyl]pyrrolidine-2-carboxamide]: the negative logarithm of the IC50 (pIC50) is 7.07.

As to `N#Cc1ccc(-c2cnc(C(F)(F)F)nc2)cc1CNC(=O)[C@@H]1[C@H]2C[C@H]2CN1S(=O)(=O)c1ccc(F)cc1` [Example 176, (1S,2S,5R)—N-(2-cyano-5-(2-(trifluoromethyl)pyrimidin-5-yl)benzyl)-3-((4-fluorophenyl)sulfonyl)-3-azabicyclo[3.1.0]hexane-2-carboxamide], the pIC50 is 8.10.

For the compound `O=C(NCc1cc(-c2ccc(C(F)(F)F)cc2)ccc1F)[C@@H]1C[C@@H](F)CN1S(=O)(=O)c1ccc(F)cc1` [Example 177, (2S,4R)-4-fluoro-N-((4-fluoro-4′-(trifluoromethyl)-[1,1′-biphenyl]-3-yl)methyl)-1-((4-fluorophenyl)sulfonyl)pyrrolidine-2-carboxamide], the negative-log IC50 (pIC50) is 8.30.

`Nc1nc(C(F)(F)F)ccc1-c1cc(CNC(=O)[C@@H]2C[C@@H](F)CN2S(=O)(=O)c2ccc(F)cc2)ccn1` [Example 178, (2S,4R)—N-[[2-[2-amino-6-(trifluoromethyl)-3-pyridyl]-4-pyridyl]methyl]-4-fluoro-1-(4-fluorophenyl)sulfonyl-pyrrolidine-2-carboxamide]: the pIC50 is 6.76.

With `CNc1nc(C(F)(F)F)ccc1-c1cc(CNC(=O)[C@@H]2C[C@@H](F)CN2S(=O)(=O)c2ccc(F)cc2)ccn1` [Example 179, (2S,4R)-4-fluoro-1-(4-fluorophenyl)sulfonyl-N-[[2-[2-(methylamino)-6-(trifluoromethyl)-3-pyridyl]-4-pyridyl]methyl]pyrrolidine-2-carboxamide], the negative-log IC50 (pIC50) was 7.21.

Regarding `O=C(NCc1cc(-c2cnc(C(F)(F)F)nc2)ncc1F)[C@@H]1C[C@@H](F)CN1S(=O)(=O)c1ccc(F)cc1` [Example 180, (2S,4R)-4-fluoro-1-(4-fluorophenyl)sulfonyl-N-[[5-fluoro-2-[2-(trifluoromethyl)pyrimidin-5-yl]-4-pyridyl]methyl]pyrrolidine-2-carboxamide], the pIC50 is 7.59.

As for `O=C(NCc1cc(F)cc(-c2cnc(C(F)(F)F)nc2)c1)[C@]12C[C@H]1CCN2S(=O)(=O)c1ccc(F)cc1` [Example 181, (1R,5S)-4-(4-fluorophenyl)sulfonyl-N-[[3-fluoro-5-[2-(trifluoromethyl)pyrimidin-5-yl]phenyl]methyl]-4-azabicyclo[3.1.0]hexane-5-carboxamide], the negative-log IC50 (pIC50) is 8.00.

On to `O=C(NCc1cc(-c2cnc(C(F)(F)F)nc2)ccc1F)[C@]12C[C@H]1CCN2S(=O)(=O)c1ccc(F)cc1` [Example 182, (1R,5S)-4-(4-fluorophenyl)sulfonyl-N-[[2-fluoro-5-[2-(trifluoromethyl)pyrimidin-5-yl]phenyl]methyl]-4-azabicyclo[3.1.0]hexane-5-carboxamide], for which the pIC50 is 7.68.

On to `O=C(NCc1cc(-c2cnc(C(F)(F)F)nc2)ccc1F)[C@@H]1[C@H]2C[C@H]2CN1S(=O)(=O)c1ccc(F)cc1` [Example 183, (1S,2S,5R)—N-(2-fluoro-5-(2-(trifluoromethyl)pyrimidin-5-yl)benzyl)-3-((4-fluorophenyl)sulfonyl)-3-azabicyclo[3.1.0]hexane-2-carboxamide], for which the pIC50 is 8.52.

Take `O=C(NCc1cc(-c2cnc(C(F)(F)F)nc2)ncc1Cl)[C@@H]1C[C@@H](F)CN1S(=O)(=O)c1ccc(F)cc1` [Example 184, (2S,4R)—N-([5-chloro-2-[2-(trifluoromethyl)pyrimidin-5-yl]pyridin-4-yl]methyl)-4-fluoro-1-[(4-fluorobenzene)sulfonyl]pyrrolidine-2-carboxamide]: the negative-log IC50 (pIC50) is 8.00.

`O=C(NCc1cc(-c2cnc(C(F)(F)F)nc2)ncc1F)C1C2CC(CC2F)N1S(=O)(=O)c1ccc(F)cc1` (stereo not shown) [Example 185, 5-fluoro-N-((5-fluoro-2-(2-(trifluoromethyl)pyrimidin-5-yl)pyridin-4-yl)methyl)-2-(4-fluorophenylsulfonyl)-2-aza-bicyclo[2.2.1]heptane-3-carboxamide]: the pIC50 was 6.81.

In the case of `C[C@H]1CC[C@@H](C(=O)NCc2ccnc(-c3cnc(C(F)(F)F)nc3)c2)N1S(=O)(=O)c1ccc(F)cc1` [Example 186, (2S,5S)-1-(4-fluorophenylsulfonyl)-5-methyl-N-((2-(2-(trifluoromethyl)pyrimidin-5-yl)pyridin-4-yl)methyl)pyrrolidine-2-carboxamide], the negative logarithm of the IC50 (pIC50) is 8.40.

On to `C[C@@]1(F)C[C@@H](C(=O)NCc2cc(-c3cnc(C(F)(F)F)nc3)ccc2F)N(S(=O)(=O)c2ccc(F)cc2)C1` [Example 187, (2S,4R)-4-fluoro-N-(2-fluoro-5-(2-(trifluoromethyl)pyrimidin-5-yl)benzyl)-1-((4-fluorophenyl)sulfonyl)-4-methylpyrrolidine-2-carboxamide], for which the pIC50 was 8.22.

Regarding `COc1cc(CNC(=O)[C@@H]2C[C@@H](F)CN2S(=O)(=O)c2ccc(F)cc2)cc(-c2cnc(C(F)(F)F)nc2)n1` [Example 188, (2S,4R)-4-fluoro-1-(4-fluorophenyl)sulfonyl-N-[[2-methoxy-6-[2-(trifluoromethyl)pyrimidin-5-yl]-4-pyridyl]methyl]pyrrolidine-2-carboxamide], the pIC50 is 8.10.

In the case of `N#Cc1cnc(-c2cnc(C(F)(F)F)nc2)cc1CNC(=O)[C@@H]1C[C@@H](F)CN1S(=O)(=O)c1ccc(F)cc1` [Example 189, (2S,4R)—N-([5-cyano-2-[2-(trifluoromethyl)pyrimidin-5-yl]pyridin-4-yl]methyl)-4-fluoro-1-[(4-fluorobenzene)sulfonyl]pyrrolidine-2-carboxamide], the negative logarithm of the IC50 (pIC50) is 7.26.

Turning to `COCCOc1nc(C(F)(F)F)ccc1-c1cc(F)cc(CNC(=O)[C@@H]2C[C@@H](F)CN2S(=O)(=O)c2ccc(F)cc2)c1` [Example 190, (2S,4R)-4-fluoro-N-([3-fluoro-5-[2-(2-methoxyethoxy)-6-(trifluoromethyl)pyridin-3-yl]phenyl]methyl)-1-[(4-fluorobenzene)sulfonyl]pyrrolidine-2-carboxamide], the pIC50 is 7.28.

Regarding `Cc1cc(-c2cnc(C(F)(F)F)nc2)cc(CNC(=O)[C@@H]2[C@@H](F)CCN2S(=O)(=O)c2ccc(F)cc2)n1` [Example 191, (2R,3S)-3-fluoro-1-[(4-fluorobenzene)sulfonyl]-N-([6-methyl-4-[2-(trifluoromethyl)pyrimidin-5-yl]pyridin-2-yl]methyl)pyrrolidine-2-carboxamide], the negative-log IC50 (pIC50) was 7.57.

Source of the values: US11236046B2, “Substituted heterocyclic sulfonamide compounds useful as TRPA1 modulators” (Genentech, Inc., priority 2013, dated 2022).
